Details: 500 mg, >90% RH, ambient temperature, 5 days

O=C([O-])c1ccccc1.[Na+] [sodium benzoate]
change in XRPD pattern: significant changes

— patent publication US10098861B1 (SyneuRx International (Taiwan) Corp., priority 2017, dated 2018)
